Biological target: T1, PatA (Mycolicibacterium smegmatis, UniProt A0QWG5)
T1 sequence (A0QWG5 1-304): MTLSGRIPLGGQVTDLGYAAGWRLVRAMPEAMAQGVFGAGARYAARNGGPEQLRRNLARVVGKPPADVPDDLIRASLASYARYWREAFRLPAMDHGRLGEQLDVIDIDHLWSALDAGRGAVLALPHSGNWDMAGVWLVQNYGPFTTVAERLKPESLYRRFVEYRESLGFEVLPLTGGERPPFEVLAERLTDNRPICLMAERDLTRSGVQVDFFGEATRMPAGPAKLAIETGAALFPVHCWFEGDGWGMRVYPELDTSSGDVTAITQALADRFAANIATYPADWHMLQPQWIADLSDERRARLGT
Assay: isothermal titration calorimetry
Assay type: binding

Kd: 7.18 µM
SMILES: CCCCCCCCCCCCCCCCSCCNC(=O)CCNC(=O)[C@H](O)C(C)(C)COP(=O)(O)OP(=O)(O)OC[C@H]1O[C@@H](n2cnc3c(N)ncnc32)[C@H](O)[C@@H]1OP(=O)(O)O [S-C16-CoA, S-hexadecyl-CoA]

Reference: article PMC8519569 (Science Advances, 2021)
